# Results from patent publication US20170080049A1, “MEDICINE AGAINST GROWTH FAILURE INDUCED BY ADMINISTRATION OF STEROID” (DAIICHI SANKYO COMPANY, LIMITED, priority 2014, published 2017).
# Key:
# [1] = tested on: steroid-induced growth failure, male Crlj:WI (Wistar) rat; assay: Simultaneous combined administration test of various steroids and CNP derivative (A) in rats (Example 5); type: in vivo
# Method: 0.3 mg/mL solution of dexamethasone (dexamethasone injection “KS”, available from Kyoritsuseiyaku Corporation diluted with saline), prednisolone succinate suspended in 0.1% polysorbate-containing brine (available from Wako Pure Chemical Industries, Ltd., concentration of 5 mg/mL as prednisolone), or betamethasone dipropionate suspended in 0.1% polysorbate-containing brine (available from Wako Pure Chemical Industries, Ltd., concentration of 0.3 mg/mL as betamethasone) was administered to the hypoderm of the back of a 4-week-old male Crlj:WI (Wistar) rat (ten animals for each set of substances) in a volume of 1 mL/kg once a day for 28 days. No substance was administered to the control group (5 animals, Group 1). At the same time, for five of ten animals in each set (Group 2, Group 4, Group 6) a medium (0.03 mol/L acetate buffer (pH 4.0)/1% benzyl alcohol/10% sucrose) and for the remaining five animals (Group 3, Group 5, Group 7) the medium and a 1 mg/mL solution of CNP derivative (A) were administered in combination in the hypoderm of the back in a volume of 1 mL/kg once a day for 28 days. After measuring the body weight, the body length and the tail length under isoflurane anesthesia on the day after the final day of administration, blood was collected from the abdominal aorta and the animal was caused to die, the right femur was extracted and the femur length was measured.
# [2] = tested on: dexamethasone-induced growth failure, male Crlj:WI (Wistar) rat; type: in vivo; details: dexamethasone 1 mg/mL pump alone or combined with CNP derivative (A) 20 mg/mL pump, continuous s.c. 28 days, mean ± SD, n=6
# Method: Osmotic pumps (MINI-OSMOTIC PUMP Model 2004, available from DURECT CORPORATION, flow rate: 0.25 μL/hr, for 28 days) were charged with a 1 mg/mL solution of dexamethasone (dexamethasone injection “KS”, available from Kyoritsuseiyaku Corporation, Group 2 and Group 3) or saline in a control group (Group 1), and one osmotic pump was embedded in the hypoderm of the back of each 7-week-old male Crlj:WI (Wistar) rat. At the same time, one osmotic pump (the same as described above) charged with a 20 mg/mL solution of CNP derivative (A) in Group 3, or charged with Medium 1 (0.03 mol/L acetate buffer (pH 4.0)/1% benzyl alcohol/10% sucrose) in Group 1 and Group 2 was embedded in the hypoderm of the back simultaneously with the pump containing dexamethasone or saline. Then the animals were fed for 28 days, and the body weight, the body length (length from the top of the nose to the anus) and the tail length were measured on the final day, and after collecting the blood from the abdominal aorta under isoflurane anesthesia, the right femur and major organs (spleen, thymus, liver, heart and lung) were collected. Regarding the femur, the bone length and width were measured by using a caliper, and the organ weights were measured. Concentrations of cholesterol and IGF-1 in plasma prepared from the blood, were determined by using cholesterol E-Test Wako (available from Wako Pure Chemical Industries, Ltd.) and Quantikine® ELISA Mouse/Rat IGF-I Immunoassay (MG100, available from R&D Systems). [Result]
# [3] = dexamethasone 0.3 mg/mL, 1 mL/kg s.c. once a day 28 days, + medium or + CNP derivative (A) 1 mg/kg, n=5
smiles,measurement,setting,value
"C[C@@H]1C[C@H]2[C@@H]3CCC4=CC(=O)C=C[C@]4(C)[C@@]3(F)[C@@H](O)C[C@]2(C)[C@@]1(O)C(=O)CO [Dexamethasone, dexamethasone]",Body length at dissection,[1]; [3],177 ± 4 mm
same,"Body length, variation from preadministration value (Δ value)",[1]; [3],(27 ± 5) mm
same,"Body weight, variation from preadministration value (Δ value)",[1]; [3],(69 ± 5) g
same,Right femur length at dissection,[1]; [3],28.3 ± 0.4 mm
same,Tail length at dissection,[1]; [3],174 ± 4 mm
same,"Tail length, variation from preadministration value (Δ value)",[1]; [3],(47 ± 7) mm
same,Body weight at dissection,"[1]; dexamethasone 0.3 mg/mL, 1 mL/kg s.c. once a day 28 days, + medium or + CNP derivative (A) 1 mg/mL, 1 mL/kg s.c. once a day, 4-week-old male Wistar rat, mean ± SD, n=5",176 ± 5 g
same,growth failure in rats by repeated administration of the steroid for 28 days (in words),"[1]; rat, in vivo, sc",induce growth failure
same,Body length at final day,[2]; 7-week-old male Wistar rat,219 ± 5 mm
same,Tail length at final day,[2]; 7-week-old male Wistar rat,195 ± 6 mm
same,Right femur Length,[2]; male Wistar rat,35.6 ± 0.6 mm
same,"Right femur Wide (epiphyseal region, maximum width)",[2]; male Wistar rat,7.7 ± 0.4 ^NS mm
